Assay results: patent EP2812315B1, “PYRROLIC DERIVATIVES, PROCESSES FOR PREPARING THE SAME AND THEIR USES AS A DRUG” (Universite Joseph Fourier, priority 2012, dated 2013)
In brackets after ≈: the same amount, converted by molar mass. Where two headings read alike, the source gives them in different places.

Tests used:
Format in all cases: cell-based
[1] = system: HCT116 (human colon tumor); test: In vitro cytotoxicity; conditions: HCT-116, 10^-5 M in DMSO, triplicate, read-out: % of cellular growth inhibition
Procedure: (§1) In vitro cytotoxicity was assayed on three cell lines - KB (human mouth carcinoma), MCR5 (human lung fibroblast) and HCT116 (human colon tumor). Results are presented in table III as % of cellular growth inhibition in presence of 10^-5 M and 10^-6 M of the tested bis-pyrrolic derivatives in DMSO (triplicate).

[2] = system: KB (human mouth carcinoma); test: In vitro cytotoxicity; conditions: 10^-5 M in DMSO, triplicate, read-out: % of cellular growth inhibition
Procedure: as §1

[3] = system: Streptococcus agalactiae (group B) ATCC 12400; test: MIC determination, microdilution method (CLSI M07-A8); conditions: ATCC12400, 18 hours incubation
Procedure: (§2) The microdilution method recommended by the Clinical and Laboratory Standard Institute [M07-A8, Vol.29, N°2] was used. The activity of pyrrolic compounds was tested against 29 bacterial strains belonging to 17 different species and 12 different genera (Staphylococcus, Streptococcus, Enterococcus, […], Bacillus, Haetttophilus, Escherichia, Klebsiella, Enterobacter, Serratia, Pseudomonas, and Acinetobacter). Bacterial inocula were prepared in Mueller Hinton broth (MH2, bioMérieux, Marcy L'Etoile, France), supplemented with 10% sheep blood for fastidious species (i.e., Streptococcus pneumoniae and Haemophilus influenzae). They were dispensed in 96 well microtiter plates (5 x 10^5 CFU/mL of final inoculum). Pyrrolic compounds were added to the wells as to obtain two-fold serial concentrations (0.25-64 mg/L). Plates were incubated at 37°C, in 5% CO2 enriched atmosphere for fastidious species only. MICs were read after 18 hours incubation of cultures, and corresponded to the minimum pyrrolic compound concentration that allowed complete visual growth inhibition of bacteria. Drug-free cultures served as growth controls. Cultures receiving gentamicine, ciprofloxacine or cefotaxime served as positive controls.

[4] = system: Staphylococcus aureus ATCC 6538; test: as above; conditions: ATCC6538, 5 x 10^5 CFU/mL, 18 hours incubation
Procedure: as §2

[5] = system: Listeria innocua CIP 80.11; test: as above; conditions: CIP80, 18 hours incubation
Procedure: as §2

[6] = system: Staphylococcus epidermidis ATCC 12228; test: as above
Procedure: as §2

[7] = system: Klebsiella pneumoniae ATCC 35657; test: as above
Procedure: as §2

[8] = system: Staphylococcus aureus CIP 65.6; test: as above; conditions: CIP65, 5 x 10^5 CFU/mL, 18 hours incubation
Procedure: as §2

[9] = system: Staphylococcus epidermidis CIP 103627; test: as above; conditions: CIP103627, 5 x 10^5 CFU/mL, 18 hours incubation
Procedure: as §2

[10] = system: Streptococcus mitis CIP 103335; test: as above; conditions: CIP103335, 18 hours incubation
Procedure: as §2

[11] = system: Acinetobacter baumanii ATCC 19606; test: as above; conditions: Acinetobacter baumannii
Procedure: as §2

[12] = system: Pseudomonas aeruginosa CIP 5933; test: as above
Procedure: as §2

[13] = system: Enterococcus faecium CIP 54.32; test: as above; conditions: CIP54, 18 hours incubation
Procedure: as §2

[14] = system: Staphylococcus aureus ATCC 33592 (MRSA); test: as above; conditions: 5 x 10^5 CFU/mL, 18 hours incubation
Procedure: as §2

[15] = system: Staphylococcus epidermidis CIP 81.55; test: as above; conditions: CIP81, 5 x 10^5 CFU/mL, 18 hours incubation
Procedure: as §2

[16] = system: Staphylococcus aureus CIP 103428; test: as above; conditions: CIP103428, 5 x 10^5 CFU/mL, 18 hours incubation
Procedure: as §2

[17] = system: Enterococcus faecalis ATCC 29212; test: as above; conditions: ATCC29212, 18 hours incubation
Procedure: as §2

[18] = system: Staphylococcus aureus ATCC 29213; test: as above
Procedure: as §2

[19] = system: Streptococcus pyogenes (group A) CIP 104226; test: as above; conditions: CIP104226, 18 hours incubation
Procedure: as §2

[20] = system: Escherichia coli ATCC 25922; test: as above
Procedure: as §2

[21] = system: Enterobacter cloacae ATCC13047; test: as above
Procedure: as §2

[22] = system: Haemophilus influenzae ATCC 49766; test: as above; conditions: ATCC49766, 10% sheep blood, 5% CO2, 18 hours incubation
Procedure: as §2

[23] = system: Bacillus subtilis CIP 5262; test: as above; conditions: CIP5262, 18 hours incubation
Procedure: as §2

[24] = system: Staphylococcus aureus ATCC 9144; test: as above; conditions: ATCC9144, 5 x 10^5 CFU/mL, 18 hours incubation
Procedure: as §2

[25] = system: Staphylococcus aureus CIP 65.25 (MRSA); test: as above; conditions: 5 x 10^5 CFU/mL, 18 hours incubation
Procedure: as §2

[26] = system: Streptococcus pneumoniae ATCC 6303; test: as above; conditions: ATCC6303, 10% sheep blood, 5% CO2, 18 hours incubation
Procedure: as §2

[27] = system: Staphylococcus aureus ATCC 106414 (VISA); test: as above; conditions: 5 x 10^5 CFU/mL, 18 hours incubation
Procedure: as §2

[28] = system: Staphylococcus aureus ATCC 25923; test: as above
Procedure: as §2

[29] = system: Staphylococcus aureus SA-1199B; test: as above; conditions: SA1199B, 18 h
Procedure: as §2

[30] = system: Streptococcus pneumoniae ATCC 49619; test: as above; conditions: ATCC49619, 10% sheep blood, 5% CO2, 18 hours incubation
Procedure: as §2

[31] = system: Serratia marcescens CIP 103551; test: as above
Procedure: as §2

MRC5 = test: In vitro cytotoxicity; conditions: MRC5 (human lung fibroblast); 10^-5 M in DMSO; triplicate; read-out: % of cellular growth inhibition
Procedure: as §1

[32] = ATCC12228, Staphylococcus epidermidis ATCC 12228, 5 x 10^5 CFU/mL, 18 hours incubation, read-out: MIC
[33] = ATCC35657, Klebsiella pneumoniae ATCC 35657, 18 hours incubation, read-out: MIC
[34] = ATCC19606, Acinetobacter baumanii ATCC 19606, 18 hours incubation, read-out: MIC
[35] = CIP5933, Pseudomonas aeruginosa CIP 5933, 18 hours incubation, read-out: MIC
[36] = ATCC29213, Staphylococcus aureus ATCC 29213, 5 x 10^5 CFU/mL, 18 hours incubation, read-out: MIC
[37] = ATCC25922, Escherichia coli ATCC 25922, 18 hours incubation, read-out: MIC
[38] = Enterobacter cloacae ATCC13047, 18 hours incubation, read-out: MIC
[39] = ATCC25923, Staphylococcus aureus ATCC 25923, 5 x 10^5 CFU/mL, 18 hours incubation, read-out: MIC
[40] = CIP103551, Serratia marcescens CIP 103551, 18 hours incubation, read-out: MIC

Structure (SMILES)	inhibition at 10 µM [1] [%]	inhibition at 10 µM [2] [%]	MIC [4] [µg/mL]	MIC [6, 32] [µg/mL]	MIC [7, 33] [µg/mL]	MIC [8] [µg/mL]	MIC [9] [µg/mL]	MIC [11, 34] [µg/mL]	MIC [12, 35] [µg/mL]	MIC [14] [µg/mL]	MIC [15] [µg/mL]	MIC [16] [µg/mL]	MIC [18, 36] [µg/mL]	MIC [20, 37] [µg/mL]	MIC [21, 38] [µg/mL]	MIC [24] [µg/mL]	MIC [25] [µg/mL]	MIC [28, 39] [µg/mL]	MIC [31, 40] [µg/mL]	inhibition at 10 µM (MRC5) [%]	also measured
CCC(c1[nH]c(C)c(C(C)=O)c1C)c1[nH]c(C)c(C(C)=O)c1C [3a]	41	30	16 (≈ 50.9 µM)	> 128	> 128	32 (≈ 102 µM)	> 128	> 128	> 128	16 (≈ 50.9 µM)	> 128	32 (≈ 102 µM)	32 (≈ 102 µM)	> 128	> 128	> 128	16 (≈ 50.9 µM)	32 (≈ 102 µM)	> 128		MIC [3]: > 128 µg/mL; MIC [5]: > 128 µg/mL; MIC [10]: > 128 µg/mL; MIC [13]: > 128 µg/mL; MIC [17]: > 128 µg/mL; MIC [19]: > 128 µg/mL; MIC [22]: > 128 µg/mL; MIC [23]: > 128 µg/mL; MIC [26]: > 128 µg/mL; MIC [27]: 32 µg/mL (≈ 102 µM); MIC [29]: 32 µg/mL (≈ 102 µM); MIC [30]: > 128 µg/mL
CC(=O)c1c(C)[nH]c(C(c2ccccc2)c2[nH]c(C)c(C(C)=O)c2C)c1C [3b]	43	32	4 (≈ 11 µM)	> 128	> 128	4 (≈ 11 µM)	> 128	> 128	> 128	8 (≈ 22.1 µM)	> 128	4 (≈ 11 µM)	4 (≈ 11 µM)	> 128	> 128	8 (≈ 22.1 µM)	8 (≈ 22.1 µM)	4 (≈ 11 µM)	> 128		MIC [3]: > 128 µg/mL; MIC [5]: > 128 µg/mL; MIC [10]: > 128 µg/mL; MIC [13]: > 128 µg/mL; MIC [17]: > 128 µg/mL; MIC [19]: > 128 µg/mL; MIC [22]: > 128 µg/mL; MIC [23]: > 128 µg/mL; MIC [26]: > 128 µg/mL; MIC [27]: 4 µg/mL (≈ 11 µM); MIC [29]: 8 µg/mL (≈ 22.1 µM); MIC [30]: > 128 µg/mL
CC(=O)c1c(C)[nH]c(C(c2ccc([N+](=O)[O-])cc2)c2[nH]c(C)c(C(C)=O)c2C)c1C [3d]	0	0	> 32	> 128	> 128	16 (≈ 39.3 µM)	> 128	> 128	> 128	> 32	> 128	> 32	8 (≈ 19.6 µM)	> 128	> 128	> 32	8 (≈ 19.6 µM)	> 32	> 128	0	MIC [27]: 8 µg/mL (≈ 19.6 µM)
CC(=O)c1c(C)[nH]c(C(c2ccccc2I)c2[nH]c(C)c(C(C)=O)c2C)c1C [3k]	0	20 ± 8		> 128	> 32			> 32	> 32				4 (≈ 8.19 µM)	> 32	> 32			8 (≈ 16.4 µM)	> 32	3 ± 5	
CC(=O)c1c(C)[nH]c(C(c2cccs2)c2[nH]c(C)c(C(C)=O)c2C)c1C [3l]	11 ± 7	9 ± 5		> 128	> 32			> 32	> 32				8 (≈ 21.7 µM)	> 32	> 32			4 (≈ 10.9 µM)	> 32	6 ± 3	
CC(=O)c1c(C)[nH]c(C(c2ccccc2O)c2[nH]c(C)c(C(C)=O)c2C)c1C [3m]	0	6 ± 10																		1 ± 17	MIC ([6]; Staphylococcus epidermidis, ATCC12228, 18 h): > 128 µg/mL; MIC ([7]; Klebsiella pneumoniae, ATCC35657, 18 h): > 32 µg/mL; MIC ([11]; ATCC19606, 18 h): > 32 µg/mL; MIC ([12]; Pseudomonas aeruginosa, CIP5933, 18 h): > 32 µg/mL; MIC ([18]; Staphylococcus aureus, ATCC29213, 18 h): 4 µg/mL (≈ 10.6 µM); MIC ([20]; Escherichia coli, ATCC25922, 18 h): > 32 µg/mL; MIC ([21]; Enterobacter cloacae, ATCC13047, 18 h): > 32 µg/mL; MIC ([28]; Staphylococcus aureus, ATCC25923, 18 h): 8 µg/mL (≈ 21.1 µM); MIC ([31]; Serratia marcescens, CIP103551, 18 h): > 32 µg/mL
